Reference: a melting point compilation (Tetko et al.)

| melting point | Structure (SMILES) |
| --- | --- |
| 108 to 110 °C | NC(=O)c1cccc(C=O)c1 |
| 139 to 141 °C | COC(=O)NC1CCC(O)CC1 (stereo unspecified) |
| 10 to 12 °C | CS(=O)(=O)N1CCN(CCN)CC1 |
| 68 to 72 °C | COC(=O)c1ccccc1-c1ccc(C=O)o1 |
| 159 to 161 °C | CN(C)S(=O)(=O)c1cc(C(=O)O)n(C)c1 |
| 83 to 85 °C | Cc1ccc(C(=O)c2cccc(S(C)(=O)=O)c2)c(C)c1 |
| 104 to 106 °C | CN(C)c1ccc(C=O)cc1[N+](=O)[O-] |
| 178 to 180 °C | CC1CSc2ccccc2NC1=O (stereo unspecified) |
| 85 to 87 °C | O=C(Cl)c1cc(Cl)nc2ccccc12 |
| 233 to 235 °C | Nc1c(Cl)cc(Br)cc1C(=O)O |
| 276 to 278 °C | COC(=O)c1sc2nc(CCl)[nH]c(=O)c2c1C |
| 159 to 161 °C | CC(C)Cc1ccc(C=CC(=O)O)cc1 |
| 135 to 137 °C | COc1ccc(-c2nn(-c3ccccc3)cc2C=O)cc1 |
| 88 to 90 °C | CCOC(=O)c1ccc(C(=O)O)nc1C |
| 356 to 358 °C | Cn1c(N)c(C(=O)CCl)c(=O)[nH]c1=O |
| 263 to 265 °C | Cn1ccnc1-c1nnc(N)s1 |
| 165 to 167 °C | COc1ccc(C(=O)NCC(=O)O)cc1 |
| 110 to 112 °C | Cc1cccn2c(=O)cc(CCl)nc12 |
| 226 to 228 °C | O=C(CC(=O)Nc1cc(Cl)ccc1Cl)Nc1cc(Cl)ccc1Cl |
| 70 to 72 °C | COC(=O)CC(=O)c1ccncc1 |
| 168 to 170 °C | Nc1cccc(CN2CCN(c3ccccn3)CC2)c1 |
| 218 to 220 °C | CN(C)S(=O)(=O)c1ccc2oc(NN)nc2c1 |
| 137 to 139 °C | COc1ccc(CNS(=O)(=O)c2c[nH]nc2N)cc1 |
| 264 to 266 °C | O=C(O)c1c[nH]c(C(=O)N2CCCC2)c1 |
| 144 to 146 °C | ClC(Cl)(Cl)C(c1ccc(Br)cc1)c1ccc(Br)cc1 |

| melting point | Structure (SMILES) |
| --- | --- |
| 285 to 287 °C | N#CC(C(=O)CCl)=C1Nc2ccccc2N1 |
| 109 to 111 °C | OCc1ncn(-c2ccccc2)n1 |
| 157 to 159 °C | COC(=O)c1cc(Cl)c2cc(Cl)ccc2n1 |
| 176 to 178 °C | Cc1ccc(S(N)(=O)=O)cc1N |
| 171 to 173 °C | Cn1c(S)nnc1C(F)F |
| 135 to 137 °C | O=C(O)Cc1cn(-c2ccccc2)nc1-c1ccc(Br)cc1 |
| 114 to 116 °C | CN(C)C(=O)CNc1ccccc1 |
| 221 to 223 °C | NC(C(=O)O)c1cccc(Br)c1 (stereo unspecified) |
| 76 to 78 °C | COc1nc(Cl)ncc1Br |
| 236 to 238 °C | O=C(O)c1cc(-c2cccs2)nc2onc(C3CC3)c12 |
| 178 to 180 °C | COc1cc(Cl)ccc1C(=O)NN |
| 184 to 186 °C | O=C(O)c1ccccc1-c1ncc(-c2ccccc2F)o1 |
| 111 to 113 °C | CCOc1cc(C=O)ccc1OCc1c(F)cccc1Cl |
| 168 to 170 °C | Cc1ccc(C)n1-c1sccc1C(=O)O |
| 127 to 129 °C | O=C(O)CCCNc1ncccn1 |
| 188 to 190 °C | O=C(O)C1CC(=O)N(CCc2ccccc2)C1 (stereo unspecified) |
| 217 to 219 °C | O=C(CCl)Nc1ccc2[nH]c(C(F)(F)F)nc2c1 |
| 273 to 275 °C | O=C(O)CNS(=O)(=O)c1c[nH]c2ncccc12 |
| 104 to 106 °C | CCCc1ccc2c(c1)C(=O)C(=O)N2 |
| 41 to 43 °C | O=[N+]([O-])c1cc(S(=O)(=O)Cl)c(Cl)cc1F |
| 266 to 268 °C | O=c1[nH]ncc2c[nH]nc12 |
| 198 to 200 °C | CC(C)n1ncc2c(C(=O)O)cc(-c3ccccc3)nc21 |
| 111 to 113 °C | CC(=O)c1ccc(Cl)c(S(=O)(=O)Cl)c1 |
| 79 to 81 °C | COc1cc(CN)c2ccccc2n1 |
| 208 to 210 °C | CCc1cc(=O)[nH]c(-c2ccc(Cl)nc2)n1 |

| melting point | Structure (SMILES) |
| --- | --- |
| 224 to 226 °C | Cc1ccc(-n2nc(C(=O)O)c3c2CCC3)cc1 |
| 241 to 243 °C | O=C1NC(=O)c2ncccc21 |
| 96 to 98 °C | COC(=O)c1ccc(CNC(=O)C(C)Cl)cc1 (stereo unspecified) |
| 188 to 190 °C | NCc1ccccc1NS(=O)(=O)c1ccccc1 |
| 148 to 150 °C | Sc1nnnn1-c1cccc(Cl)c1 |
| 178 to 180 °C | CCOc1ccc(S(=O)(=O)NCCC(=O)O)cc1 |
| 189 to 191 °C | NC(=S)c1cccnc1N1CCNC(=O)C1 |
| 137 to 139 °C | Cc1cc(F)cc2c(Cl)c(C#N)cnc12 |
| 103 to 105 °C | O=C1CCCOc2c1ccc(Cl)c2Cl |
| 339 to 341 °C | N#Cc1ccc(-c2ccncc2)[nH]c1=O |
| 99 to 101 °C | COc1nnc(Cl)c2ccccc12 |
| 189 to 191 °C | Nc1n[nH]c2c(Cl)cccc12 |
| 298 to 300 °C | Cc1cc(Br)cc2c1NC(=O)C2=O |
| 51 to 53 °C | Clc1ccc2c(c1)NCCCS2 |
| 205 to 207 °C | O=S(=O)(c1cccc(-c2nnc(S)o2)c1)N1CCCCC1 |
| 123 to 125 °C | Cn1cc(N2CCNCC2=O)cn1 |
| 62 to 64 °C | CS(=O)(=O)CCCS(=O)(=O)Cl |
| 231 to 233 °C | CC(C)(C)Cc1noc2ncc(C(=O)O)cc12 |
| 69 to 71 °C | COC(=O)c1cccc(C)c1C#N |
| 153 to 155 °C | CC(C)NC(=O)Cc1ccc(N)cc1 |
| 154 to 156 °C | O=C(O)C1CCCN1C(=O)c1ccc([N+](=O)[O-])o1 (stereo unspecified) |
| 214 to 216 °C | Nc1c(F)cc(Br)cc1C(=O)O |
| 69 to 71 °C | CCN(CC)S(=O)(=O)c1cccc(C(=O)NCC(=O)O)c1 |
| 79 to 81 °C | Cc1cc(N)nn1-c1ccccc1 |
| 107 to 109 °C | NCC(O)COc1ccc2c(c1)OCO2 (stereo unspecified) |

| melting point | Structure (SMILES) |
| --- | --- |
| 259 to 261 °C | Nc1nc2ccccc2n1N |
| 90 to 94 °C | Cc1sc(N)nc1-c1cccc(Cl)c1 |
| 103 to 105 °C | O=Cc1ccc(N2CCC(O)CC2)o1 |
| 71 to 80 °C | CCN1CCc2nc(N)sc2C1 |
| 129 to 131 °C | O=C(Nc1cccc(I)c1)C(F)(F)F |
| 271 to 273 °C | COc1ccc(-c2nc(N)cc(=O)[nH]2)cc1 |
| 157 to 159 °C | Cc1nc(C#N)c(NN)o1 |
| 188 to 190 °C | O=C(O)C1CCCCN1C(=O)c1cccnc1 (stereo unspecified) |
| 129 to 131 °C | CN(c1ccc(O)cc1)S(C)(=O)=O |
| 185 to 187 °C | COC(=O)Cc1cc(=O)[nH]c(S)n1 |
| 250 to 252 °C | NC(=O)N1CCN2C(=O)NC(=O)C2C1 (stereo unspecified) |
| 134 to 136 °C | O=Cc1cc(C23CC4CC(CC(C4)C2)C3)n[nH]1 |
| 145 to 150 °C | O=S(=O)(NCc1ccccc1)c1cccs1 |
| 180 to 182 °C | Cc1sc(NC(=O)CCl)c(C#N)c1C |
| 264 to 266 °C | O=CNc1ccc(C(=O)O)cc1 |
| 195 to 197 °C | O=C(NCc1cccs1)c1ccc(-n2ccnc2S)cc1 |
| 85 to 87 °C | COC(=O)C1Cc2ccccc2CN1C(=O)CCl (stereo unspecified) |
| 290 to 292 °C | O=C(O)c1ccc(Cl)c(N2CCNC2=O)c1 |
| 33 to 35 °C | CCc1c(C(C)=O)oc2ccccc12 |
| 129 to 131 °C | COc1ccc(S(=O)(=O)Cl)c(OC)c1C(=O)O |
| 232 to 234 °C | Cc1nc2sccn2c1C(N)=S |
| 133 to 135 °C | COCCn1c(S)nnc1-c1ccccc1 |
| 39 to 41 °C | CC(=O)CC(=O)c1cccc(Cl)c1 |

| Structure (SMILES) | melting point |
| --- | --- |
| CN1CCN(Cc2cccc(N)c2)CC1 | 78 to 80 °C |
| Cc1ccc(C)c(C(=O)CCl)c1 | 28 to 30 °C |
| Cc1ccc(-c2nn(Cc3ccccc3)cc2C(=O)O)cc1C | 155 to 157 °C |
